# Article PMC5896380, “Selective imaging of cathepsin L in breast cancer by fluorescent activity-based probes” (Chemical Science, 2018)
# Target: T1, cathepsin S (Homo sapiens, UniProt P25774)
# T1 construct: made in house
# Experiment: kobs/I of activity-based probes, cathepsin S
# Format: biochemical
# Conditions: Fig. 6A; pseudo-first order, probe at least 5-fold excess over cathepsin, 100 μM ACC substrate; pH 5.5, 37 °C; triplicate, SD below 20%
# Protocol: All kinetic experiments were performed using fMax (Molecular Devices) and CLARIOStar (BMG LABTECH) spectrofluorimeters operating in kinetic mode using 96-well plates. ACC-labeled substrates were screened using 355 nm and 460 nm wavelengths (excitation and emission, respectively). […] The buffer was prepared at room temperature and the enzyme kinetic studies were performed at 37 °C.
# For the kinetic studies, five recombinant human cathepsins (B, L, V, K and S) were expressed and purified and active site titrated using an E64 inhibitor. The kobs/I parameter was measured under pseudo-first order kinetic conditions, as described.[40] The cathepsin of interest was mixed with various concentrations of probe (at least 5-fold excess over cathepsin) and 100 μM ACC-fluorescence substrate. The experiments were repeated at least three times, and the results are presented as an average. The SDs were below 20%.
# T1 sequence (P25774 115-331): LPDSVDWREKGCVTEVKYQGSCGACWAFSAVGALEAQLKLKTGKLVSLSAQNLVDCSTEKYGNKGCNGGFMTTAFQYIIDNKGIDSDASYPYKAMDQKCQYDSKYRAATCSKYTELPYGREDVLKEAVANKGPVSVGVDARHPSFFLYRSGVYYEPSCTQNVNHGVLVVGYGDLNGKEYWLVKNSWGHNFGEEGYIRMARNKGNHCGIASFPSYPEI
substance,measurement,value
Cy5-6-ahx-His-DThr-Phe(F5)-Cys(Bzl)-AOMK [MP-cL3],kobs/I Cath-S,225 M⁻¹ s⁻¹
